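Results reflect a 48-hour exposure of cells in 96-well plates to compound at five concentrations. Abbreviation: GI50, concentration required for 50% inhibition of growth.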 Calls of active or inactive are those of the source. Rule as the data show it: active = GI50 up to about 1.1 µM and inactive = higher.
Key:
Assay in all cases: inhibition of tumour cell growth, NCI panel, 48 h
786-0 = test system: 786-0
A498 = test system: A498
A549 = test system: A549
ACHN = test system: ACHN
BT-549 = test system: BT-549
CAKI-1 = test system: CAKI-1
CCRF-CEM = test system: CCRF-CEM
COLO 205 = test system: COLO 205
DU-145 = test system: DU-145
EKVX = test system: EKVX
HCC 2998 = test system: HCC 2998
HCT-116 = test system: HCT-116
HCT-15 = test system: HCT-15
HL-60 = test system: HL-60
HOP-62 = test system: HOP-62
HOP-92 = test system: HOP-92
HT-29 = test system: HT-29
Hs-578T = test system: Hs-578T
IGROV-1 = test system: IGROV-1
K562 = test system: K562
KM12 = test system: KM12
LOX IMVI = test system: LOX IMVI
M14 = test system: M14
MCF7 = test system: MCF7
MDA-MB-231 = test system: MDA-MB-231
MDA-MB-435 = test system: MDA-MB-435
MDA-N = test system: MDA-N
MOLT-4 = test system: MOLT-4
Malme-3M = test system: Malme-3M
NCI-H226 = test system: NCI-H226
NCI-H23 = test system: NCI-H23
NCI-H460 = test system: NCI-H460
NCI-H522 = test system: NCI-H522
NCI/ADR-RES = test system: NCI/ADR-RES
OVCAR-3 = test system: OVCAR-3
OVCAR-4 = test system: OVCAR-4
OVCAR-5 = test system: OVCAR-5
OVCAR-8 = test system: OVCAR-8
PC-3 = test system: PC-3
RPMI-8226 = test system: RPMI-8226
RXF 393 = test system: RXF 393
SF-268 = test system: SF-268
SF-295 = test system: SF-295
SF-539 = test system: SF-539
SK-MEL-28 = test system: SK-MEL-28
SK-MEL-2 = test system: SK-MEL-2
SK-MEL-5 = test system: SK-MEL-5
SK-OV-3 = test system: SK-OV-3
SN12C = test system: SN12C
SNB-19 = test system: SNB-19
SNB-75 = test system: SNB-75
SR = test system: SR
SW-620 = test system: SW-620
T47D = test system: T47D
TK-10 = test system: TK-10
U-251 = test system: U-251
UACC-257 = test system: UACC-257
UACC-62 = test system: UACC-62
UO-31 = test system: UO-31

O=[N+]([O-])c1cc(CCl)ccc1CCl
GI50 (786-0): 1.67 µM (inactive)
GI50 (A498): 6.59 µM (inactive)
GI50 (A549): 5.79 µM (inactive)
GI50 (ACHN): 1.72 µM (inactive)
GI50 (BT-549): 3.07 µM (inactive)
GI50 (CAKI-1): 1.35 µM (inactive)
GI50 (CCRF-CEM): 504 nM (active)
GI50 (COLO 205): 1.71 µM (inactive)
GI50 (DU-145): 1.63 µM (inactive)
GI50 (EKVX): 1.82 µM (inactive)
GI50 (HCC 2998): 2.48 µM (inactive)
GI50 (HCT-116): 1.69 µM (inactive)
GI50 (HCT-15): 1840 nM
GI50 (HL-60): 2.11 µM (inactive)
GI50 (HOP-62): 1.54 µM (inactive)
GI50 (HOP-92): 1.76 µM (inactive)
GI50 (HT-29): 1.71 µM (inactive)
GI50 (Hs-578T): 2.72 µM (inactive)
GI50 (IGROV-1): 1.56 µM (inactive)
GI50 (K562): 2.24 µM (inactive)
GI50 (KM12): 1.66 µM (inactive)
GI50 (LOX IMVI): 1.85 µM (inactive)
GI50 (M14): 1.74 µM (inactive)
GI50 (MCF7): 1.63 µM (inactive)
GI50 (MDA-MB-231): 2.33 µM (inactive)
GI50 (MDA-MB-435): 2.12 µM (inactive)
GI50 (MDA-N): 1.87 µM (inactive)
GI50 (MOLT-4): 2.1 µM (inactive)
GI50 (Malme-3M): 1.74 µM (inactive)
GI50 (NCI-H226): 3.78 µM (inactive)
GI50 (NCI-H23): 2.16 µM (inactive)
GI50 (NCI-H460): 3.44 µM (inactive)
GI50 (NCI-H522): 1.73 µM (inactive)
GI50 (NCI/ADR-RES): 2.7 µM (inactive)
GI50 (OVCAR-3): 1.87 µM (inactive)
GI50 (OVCAR-4): 1.76 µM (inactive)
GI50 (OVCAR-5): 2.62 µM (inactive)
GI50 (OVCAR-8): 2.4 µM (inactive)
GI50 (PC-3): 1.64 µM (inactive)
GI50 (RPMI-8226): 1.48 µM (inactive)
GI50 (RXF 393): 585 nM (active)
GI50 (SF-268): 1.99 µM (inactive)
GI50 (SF-295): 6.82 µM (inactive)
GI50 (SF-539): 2.56 µM (inactive)
GI50 (SK-MEL-28): 2.06 µM (inactive)
GI50 (SK-MEL-2): 2.72 µM (inactive)
GI50 (SK-MEL-5): 2.67 µM (inactive)
GI50 (SK-OV-3): 13.3 µM (inactive)
GI50 (SN12C): 1.53 µM (inactive)
GI50 (SNB-19): 1.89 µM (inactive)
GI50 (SNB-75): 2.13 µM (inactive)
GI50 (SR): 893 nM (active)
GI50 (SW-620): 2.17 µM (inactive)
GI50 (T47D): 676 nM (active)
GI50 (TK-10): 2.96 µM (inactive)
GI50 (U-251): 1.75 µM (inactive)
GI50 (UACC-257): 3.07 µM (inactive)
GI50 (UACC-62): 4.41 µM (inactive)
GI50 (UO-31): 1.66 µM (inactive)

Cn1c(=O)c2c(nc3sc4c(n32)C(=O)c2c(O)ccc(O)c2C4=O)n(C)c1=O
GI50 (786-0): 1.75 µM (inactive)
GI50 (A498): 22.1 µM (inactive)
GI50 (A549): 12.7 µM (inactive)
GI50 (ACHN): 2.94 µM (inactive)
GI50 (BT-549): 5.9 µM (inactive)
GI50 (CAKI-1): 6.04 µM (inactive)
GI50 (CCRF-CEM): 305 nM (active)
GI50 (COLO 205): 3.46 µM (inactive)
GI50 (DU-145): 11.2 µM (inactive)
GI50 (EKVX): 13 µM (inactive)
GI50 (HCC 2998): 4.11 µM (inactive)
GI50 (HCT-116): 1.87 µM (inactive)
GI50 (HCT-15): 1730 nM
GI50 (HL-60): 0.51 µM (active)
GI50 (HOP-62): 12.8 µM (inactive)
GI50 (HOP-92): 2.66 µM (inactive)
GI50 (HT-29): 2.19 µM (inactive)
GI50 (Hs-578T): 16.3 µM (inactive)
GI50 (IGROV-1): 8.02 µM (inactive)
GI50 (K562): 0.64 µM (active)
GI50 (KM12): 2.77 µM (inactive)
GI50 (LOX IMVI): 0.871 µM (active)
GI50 (M14): 2.51 µM (inactive)
GI50 (MCF7): 0.955 µM (active)
GI50 (MDA-MB-231): 2.28 µM (inactive)
GI50 (MDA-MB-435): 4.78 µM (inactive)
GI50 (MDA-N): 1.86 µM (inactive)
GI50 (MOLT-4): 1.31 µM (inactive)
GI50 (Malme-3M): 1.06 µM (active)
GI50 (NCI-H226): 53.8 µM (inactive)
GI50 (NCI-H23): 7.55 µM (inactive)
GI50 (NCI-H460): 20.5 µM (inactive)
GI50 (NCI-H522): 0.137 µM (active)
GI50 (NCI/ADR-RES): 2.74 µM (inactive)
GI50 (OVCAR-3): 4.67 µM (inactive)
GI50 (OVCAR-4): 1.46 µM (inactive)
GI50 (OVCAR-5): 28 µM (inactive)
GI50 (OVCAR-8): 2.34 µM (inactive)
GI50 (PC-3): 5.4 µM (inactive)
GI50 (RPMI-8226): 0.298 µM (active)
GI50 (RXF 393): 2680 nM (inactive)
GI50 (SF-268): 6.04 µM (inactive)
GI50 (SF-295): 31.2 µM (inactive)
GI50 (SF-539): 3.44 µM (inactive)
GI50 (SK-MEL-28): 6.05 µM (inactive)
GI50 (SK-MEL-2): 4.42 µM (inactive)
GI50 (SK-MEL-5): 2.46 µM (inactive)
GI50 (SK-OV-3): 40.7 µM (inactive)
GI50 (SN12C): 1.63 µM (inactive)
GI50 (SNB-19): > 53.1 µM (inactive)
GI50 (SNB-75): 2.99 µM (inactive)
GI50 (SR): 598 nM (active)
GI50 (SW-620): 0.406 µM (active)
GI50 (T47D): 2430 nM (inactive)
GI50 (TK-10): 5.97 µM (inactive)
GI50 (U-251): 14.6 µM (inactive)
GI50 (UACC-257): 11.2 µM (inactive)
GI50 (UACC-62): 4.73 µM (inactive)
GI50 (UO-31): 3.74 µM (inactive)

Reference: ChEMBL document CHEMBL1201862, “PubChem BioAssay data set” (2004)
